Test system: U937 cells
Assay: Inhibitory activity against programmed necroptosis of U937 cells induced by TNF-α and Q-VD-Oph (CellTiter-Glo)
Type: cell-based
Conditions: Homo sapiens, U-937, 48 h, Celltiter-Glo survival rate
Experimental: The U937 cell strain which was used in the following Testing Examples was derived from ATCC, No.: CRL-1593.2, batch No.: 63479999, culture medium: RPMI-1640+10% FBS.
The compound to be tested was dissolved in DMSO, and diluted with DMSO to a series of gradient concentrations. The U937 cells were inoculated in a 384-well plate at 5000/well. The compound at respective concentration was added to each of the wells, and was mixed with the cells homogeneously. Human TNF-α and Q-VD-Oph were added simultaneously to induce programmed necroptosis of the cells. The cells were placed in the incubator at 37° C. and 5% CO2 for further culture of 48 h. Celltiter-Glo reagent was used for detection. After adequate pyrolysis reaction, the chemiluminescence readout value was recorded by a microplate reader. The survival rate was calculated from the detection results using the equation as follows: SR (%)=(RLU compound−RLU blank)/(RLU high control−RLU blank)×100%. The survival rate was plotted against the final concentration of respective compound using a 4-parameter fitting to calculate the inhibitory C50 of the compound against programmed necroptosis of cells induced by TNF-α.

SMILES | IC50 [nM]
N#Cc1cc(N2CCC(C(=O)N3N=CCC3c3ccccc3)C3(CC3)C2)ncn1 (racemic) [Compound Z-60-2, 6-(8-(5-phenyl-4,5-dihydro-1H-pyrazole-1-carbonyl)-5-aza-spiro[2.5]oct-5-yl)pyrimidine-4-carbonitrile] | 7
NC(=O)c1cc(N2CCC(C(=O)N3N=CCC3c3cc(F)cc(F)c3)CC23CC3)ncn1 (racemic) [Compound Z-64-a, 6-(7-(5-(3,5-difluorophenyl)-4,5-dihydro-1H-pyrazole-1-carbonyl)-4-aza-spiro[2.5]oct-4-yl)pyrimidine-4-carboxamide] | 10
CN(C)C(=O)c1cc(N2CC[C@H](C(=O)N3N=CC[C@H]3c3cc(F)cc(F)c3)CC23CC3)ncn1 (racemic) [Compound Z-69, 6-((S)-7-((S)-5-(3,5-difluorophenyl)-4,5-dihydro-1H-pyrazole-1-carbonyl)-4-aza-spiro[2.5]oct-4-yl)-N,N-dimethylpyrimidine-4-carboxamide] | 127
NC(=O)c1ccnc(N2C[C@H]3C[C@H](C(=O)N4N=CC[C@@H]4c4cc(F)ccc4F)C[C@H]3C2)n1 (single isomer, unassigned) [Compound Z-22-2] | 48
N#Cc1cc(N2CC[C@@H](C(=O)N3N=CC[C@@H]3c3cncc(F)c3)CC23CC3)ncn1 (single isomer, unassigned) [Compound Z-65-4] | 14
Nc1nc(N2CC3CC(C(=O)N4N=CCC4c4ccccc4)CC3C2)ncc1F (centres unmarked) [Compound Z-14, (2-(4-amino-5-fluoropyrimidin-2-yl)octahydrocyclopenta[c]pyrrol-5-yl)(5-phenyl-4,5-dihydro-1H-pyrazol-1-yl) ketone] | 165
NC(=O)c1cc(N2CC3CC(C(=O)N4N=CCC4c4cc(F)cc(F)c4)CC3C2)ncn1 (centres unmarked) [Compound Z-17, 6-(5-(5-(3,5-difluorophenyl)-4,5-dihydro-1H-pyrazole-1-carbonyl)hexahydrocyclopenta[c]pyrrol-2(1H)-yl)pyrimidine-4-carboxamide] | 248
NC(=O)c1ccnc(N2CC3CC(C(=O)N4N=CCC4c4cc(F)cc(F)c4)CC3C2)n1 (centres unmarked) [Compound Z-18, 2-(5-(5-(3,5-difluorophenyl)-4,5-dihydro-1H-pyrazole-1-carbonyl)hexahydrocyclopenta [c]pyrrol-2(1H)-yl)pyrimidine-4-carboxamide] | 94
NC(=O)c1cc(N2CC3CC(C(=O)N4N=CCC4c4cc(F)ccc4F)CC3C2)ncn1 (centres unmarked) [Compound Z-20, 6-(5-(5-(2,5-difluorophenyl)-4,5-dihydro-1H-pyrazole-1-carbonyl)hexahydrocyclopenta[c]pyrrol-2(1H)-yl)pyrimidine-4-carboxamide] | 272
NC(=O)c1ccnc(N2CC3CC(C(=O)N4N=CCC4c4cc(F)ccc4F)CC3C2)n1 (centres unmarked) [Compound Z-22, 2-(5-(5-(2,5-difluorophenyl)-4,5-dihydro-1H-pyrazole-1-carbonyl)hexahydrocyclopenta [c]pyrrol-2(1H)-yl)pyrimidine-4-carboxamide] | 70
Nc1nc(N2CC3CC(C(=O)N4N=CCC4c4cc(F)cc(F)c4)CC3C2)ncc1F (centres unmarked) [Compound Z-23, (2-(4-amino-5-fluoropyrimidin-2-yl)octahydrocyclopenta[c]pyrrol-5-yl)(5-(3,5-difluorophenyl)-4,5-dihydro-1H-pyrazol-1-yl) ketone] | 52
N#Cc1ccnc(N2CC3CC(C(=O)N4N=CCC4c4cc(F)ccc4F)CC3C2)n1 (centres unmarked) [Compound Z-24, 2-(5-(5-(2,5-difluorophenyl)-4,5-dihydro-1H-pyrazole-1-carbonyl)hexahydrocyclopenta[c]pyrrol-2(1H)-yl)pyrimidine-4-carbonitrile] | 181
Nc1nc(N2CC3CC(C(=O)N4N=CCC4c4cncc(F)c4)CC3C2)ncc1F (centres unmarked) [Compound Z-30, (2-(4-amino-5-fluoropyrimidin-2-yl)octahydrocyclopenta[c]pyrrol-5-yl)(5-(5-fluoropyridin-3-yl)-4,5-dihydro-1H-pyrazol-1-yl) ketone] | 449
N#Cc1ccnc(N2CC3CC(C(=O)N4N=CCC4c4cncc(F)c4)CC3C2)n1 (centres unmarked) [Compound Z-31, 2-(5-(5-(5-fluoropyridin-3-yl)-4,5-dihydro-1H-pyrazole-1-carbonyl)hexahydrocyclopenta[c]pyrrol-2(1H)-yl)pyrimidine-4-carbonitrile] | 408
N#Cc1ccnc(N2CC3CC(C(=O)N4N=CCC4c4cc(F)cc(F)c4)CC3C2)n1 (centres unmarked) [Compound Z-32, 2-(5-(5-(3,5-difluorophenyl)-4,5-dihydro-1H-pyrazole-1-carbonyl)hexahydrocyclopenta [c]pyrrol-2(1H)-yl)pyrimidine-4-carbonitrile] | 60
N#Cc1cc(N2CCC(C(=O)N3N=CCC3c3cc(F)cc(F)c3)CC23CC3)ncn1 (centres unmarked) [Compound Z-62, 6-(7-(5-(3,5-difluorophenyl)-4,5-dihydro-1H-pyrazole-1-carbonyl)-4-aza-spiro[2.5]oct-4-yl)pyrimidine-4-carbonitrile] | 7

Same assay, conditions: human TNF-α + Q-VD-Oph induced necroptosis, 48 h, Celltiter-Glo survival rate

SMILES | IC50 [nM]
N#Cc1cc(N2CCC(C(=O)N3N=CCC3c3cc(F)ccc3F)C3(CC3)C2)ncn1 (racemic) [Compound Z-52-2, 6-(8-(5-(2,5-difluorophenyl)-4,5-dihydro-1H-pyrazole-1-carbonyl)-5-aza-spiro[2.5]oct-5-yl)pyrimidine-4-carbonitrile] | 41
NC(=O)c1cc(N2CCC(C(=O)N3N=CCC3c3cc(F)ccc3F)C3(CC3)C2)ncn1 (racemic) [Compound Z-53-1, 6-(8-(5-(2,5-difluorophenyl)-4,5-dihydro-1H-pyrazole-1-carbonyl)-5-aza-spiro[2.5]oct-5-yl)pyrimidine-4-carboxamide] | 26
NC(=O)c1cc(N2CCC(C(=O)N3N=CCC3c3cc(F)ccc3F)C3(CC3)C2)ncn1 (racemic) [Compound Z-53-2, 6-(8-(5-(2,5-difluorophenyl)-4,5-dihydro-1H-pyrazole-1-carbonyl)-5-aza-spiro[2.5]oct-5-yl)pyrimidine-4-carboxamide] | 331
N#Cc1cc(N2CC3CCC(C2)C3C(=O)N2N=CCC2c2ccccc2)ncn1 (single isomer, unassigned) [Compound Z-2, 6-(8-(5-phenyl-4,5-dihydro-1H-pyrazole-1-carbonyl)-3-azabicyclo[3.2.1]oct-3-yl)pyrimidine-4-carbonitrile] | 156
N#Cc1cc(N2CC3CCC(C2)C3C(=O)N2N=CCC2c2ccccc2)ncn1 (single isomer, unassigned) [Compound Z-3, 6-(8-(5-phenyl-4,5-dihydro-1H-pyrazole-1-carbonyl)-3-azabicyclo[3.2.1]oct-3-yl)pyrimidine-4-carbonitrile] | 322
NC(=O)c1ccnc(N2C[C@@H]3CC(C(=O)N4N=CC[C@@H]4c4cc(F)cc(F)c4)C[C@H]3C2)n1 (single isomer, unassigned) [Compound Z-18-4] | 62
Nc1nc(N2C[C@H]3C[C@@H](C(=O)N4N=CC[C@@H]4c4cc(F)cc(F)c4)C[C@H]3C2)ncc1F (single isomer, unassigned) [Compound Z-23-4] | 41
N#Cc1ccnc(N2C[C@H]3C[C@@H](C(=O)N4N=CC[C@@H]4c4cc(F)cc(F)c4)C[C@H]3C2)n1 (single isomer, unassigned) [Compound Z-32-4] | 61
COc1nccc(N2C[C@H]3C[C@H](C(=O)N4N=CC[C@@H]4c4ccccc4)C[C@H]3C2)n1 (single isomer, unassigned) [Compound Z-37-2] | 22
N#Cc1cc(N2C[C@H]3C[C@H](C(=O)N4N=CC[C@@H]4c4cc(F)cc(F)c4)C[C@H]3C2)ncn1 (single isomer, unassigned) [Compound Z-38-2] | 27
N#Cc1cc(N2C[C@H]3C[C@@H](C(=O)N4N=CC[C@@H]4c4cc(F)cc(F)c4)C[C@H]3C2)ncn1 (single isomer, unassigned) [Compound Z-38-4] | 82
Nc1nc(N2C[C@H]3C[C@@H](C(=O)N4N=CC[C@@H]4c4ccccc4)C[C@H]3C2)ncc1F (single isomer, unassigned) [Compound Z-39-4] | 88
Cc1nnc(N2CCC(C(=O)N3N=CCC3c3cc(F)cc(F)c3)C3(CC3)C2)o1 (centres unmarked) [Compound Z-61, (5-(3,5-difluorophenyl)-4,5-dihydro-1H-pyrazol-1-yl)(5-(5-methyl-1,3,4-oxadizol-2-yl)-5-aza-spiro[2.5]octane-8-yl) ketone] | 53
Cc1nnc(N2CCC(C(=O)N3N=CCC3c3cc(F)cc(F)c3)C3(CC3)C2)o1 (centres unmarked) [Compound Z-63-2, (5-(3,5-difluorophenyl)-4,5-dihydro-1H-pyrazol-1-yl)(5-(5-methyl-1,3,4-oxadizol-2-yl)-5-aza-spiro[2.5]octane-8-yl) ketone] | 21
Cc1nnc(N2CCC(C(=O)N3N=CCC3c3cc(F)cc(F)c3)C3(CC3)C2)o1 (centres unmarked) [Compound Z-63-a, (5-(3,5-difluorophenyl)-4,5-dihydro-1H-pyrazol-1-yl)(5-(5-methyl-1,3,4-oxadizol-2-yl)-5-aza-spiro[2.5]octane-8-yl) ketone] | 32
NC(=O)c1cc(N2CCC(C(=O)N3N=CCC3c3cc(F)cc(F)c3)CC23CC3)ncn1 (centres unmarked) [Compound Z-64-1, 6-(7-(5-(3,5-difluorophenyl)-4,5-dihydro-1H-pyrazole-1-carbonyl)-4-aza-spiro[2.5]oct-4-yl)pyrimidine-4-carboxamide] | 6

— US20220235032A1 (GENFLEET THERAPEUTICS (SHANGHAI) INC., priority 2019, published 2022)
